Data published in patent publication EP4032896A1, “THIAZOLOPYRIMIDONES AS INHIBITORS OF DDR1/2 AND THERAPEUTIC USES THEREOF” (Fundación del Sector Público Estatal Centro Nacional de …, priority 2021, dated 2022).
pEC50, pIC50: −log10 of the molar value.

Legend:
DDR1 [1] = biological target: T1, DDR1 (Homo sapiens, UniProt Q08345); assay: LanthaScreen Eu-Kinase Binding Assay (TR-FRET tracer displacement), DDR1; details: catalytic domain GST Tag DDR1; Kinase Tracer 178
T1 construct: The enzymes were purchased as a catalytic domain GST Tag DDR1(#PR6913A); purchased ThermoFisher PR6913A
Text: (§1) DDR1/2 binding assay: The binding assay relies on the LanthaScreen ™ Eu-Kinase Binding Assay (ThermoFisher Scientfic). This is a kinase assay platform based on measuring the binding and displacement of an Alexa Fluor® conjugate of an ATP-competitive kinase inhibitor or tracer at a kinase active site (Kinase Tracer 178. #PV5593). Binding of the tracer to the kinase is detected by addition of a europium (Eu)-labeled anti-GST antibody (#PV 5594) which specifically labels the kinase of interest. This binding results in a high degree of fluorescence resonance energy transfer (FRET), whereas displacement of the tracer with a kinase inhibitor results in a loss of FRET. The enzymes were purchased as a catalytic domain GST Tag DDR1(#PR6913A) and DDR2 (#PR7167A) from ThermoFisher. Assay conditions were as indicated by the kit manufacturers. Assays were performed in 384-well plates. The final read out was generated using an EnVision plate reader (Perkin-Elmer). The emission ratio was calculated by dividing the acceptor/tracer emission (665 nm) by the antibody/donor emission (615 nm). Values were plotted against the inhibitor concentration and fit to a sigmoid dose-response curve using Activity base by IDBS software.

DDR2 = biological target: T2, DDR2 (Homo sapiens, UniProt Q16832); assay: LanthaScreen Eu-Kinase Binding Assay (TR-FRET tracer displacement), DDR2; details: catalytic domain GST Tag DDR2; Kinase Tracer 178
T2 construct: The enzymes were purchased as a catalytic domain GST Tag DDR1(#PR6913A) and DDR2 (#PR7167A); purchased ThermoFisher PR7167A
T2 sequence (Q16832 563-849 limits assumed): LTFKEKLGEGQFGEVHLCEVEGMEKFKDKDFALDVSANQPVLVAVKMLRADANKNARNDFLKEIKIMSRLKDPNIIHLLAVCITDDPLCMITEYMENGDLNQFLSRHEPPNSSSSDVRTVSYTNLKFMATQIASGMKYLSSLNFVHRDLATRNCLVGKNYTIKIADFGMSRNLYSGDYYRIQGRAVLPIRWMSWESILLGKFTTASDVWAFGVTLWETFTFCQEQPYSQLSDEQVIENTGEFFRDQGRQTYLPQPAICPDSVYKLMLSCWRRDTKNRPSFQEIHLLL
Text: as §1

DDR1 [2] = biological target: T3, DDR1 (Mus musculus, UniProt Q03146); assay: Cellular assay: inhibition of Collagen I-induced DDR1 autophosphorylation in HEK293T cells transiently transfected with DDR1 plasmid (Western blot); format: cell-based, human; details: pcDNA3.1 DDR1 WT mouse plasmid, compound 1 h, then 10 µg/mL Collagen I 1 h, P-DDR1 (Y513), read-out: pDDR1 EC50
T3 construct: expressed in transfected cells; host or cells: HEK293T
T3 sequence (Q03146 20-911): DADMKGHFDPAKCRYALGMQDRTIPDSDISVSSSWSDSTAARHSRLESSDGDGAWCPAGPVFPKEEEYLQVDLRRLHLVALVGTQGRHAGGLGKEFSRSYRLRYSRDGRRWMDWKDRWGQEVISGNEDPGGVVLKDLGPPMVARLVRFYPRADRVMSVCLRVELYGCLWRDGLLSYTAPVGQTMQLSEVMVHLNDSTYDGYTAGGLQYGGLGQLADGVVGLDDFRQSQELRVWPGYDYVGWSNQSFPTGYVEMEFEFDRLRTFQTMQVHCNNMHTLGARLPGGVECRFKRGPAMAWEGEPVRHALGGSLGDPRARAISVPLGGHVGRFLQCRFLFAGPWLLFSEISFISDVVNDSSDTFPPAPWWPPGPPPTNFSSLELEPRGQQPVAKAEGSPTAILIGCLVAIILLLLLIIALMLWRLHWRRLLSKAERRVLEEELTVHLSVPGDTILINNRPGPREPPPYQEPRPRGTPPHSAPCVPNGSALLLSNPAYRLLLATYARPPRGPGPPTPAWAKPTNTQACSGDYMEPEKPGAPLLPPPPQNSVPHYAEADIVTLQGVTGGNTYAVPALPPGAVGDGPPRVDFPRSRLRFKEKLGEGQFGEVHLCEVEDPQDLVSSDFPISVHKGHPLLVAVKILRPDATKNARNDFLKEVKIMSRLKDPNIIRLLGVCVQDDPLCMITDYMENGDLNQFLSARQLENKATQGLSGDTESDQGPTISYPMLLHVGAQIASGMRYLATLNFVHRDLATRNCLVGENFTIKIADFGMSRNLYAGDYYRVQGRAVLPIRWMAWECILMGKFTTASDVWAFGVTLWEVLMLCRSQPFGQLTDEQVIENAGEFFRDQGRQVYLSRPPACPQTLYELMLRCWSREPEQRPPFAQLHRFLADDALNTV
Description: DDR1/2 cellular assay: Transient transfection of HEK293T cells with DDR1 plasmid is used to study the inhibition of the autophosphorylation of DDR1 induced by Collagen I in cells. HEK293T are seeded, 6x10^5 cells per well in 6-well plates and incubated for 6 h at 37 °C, 5% CO2. Then, cells are transfected using Effectene reactive (Quiagen) with pcDNA3.1 DDR1 WT mouse plasmid. Cells are incubated with transfection complexes under normal growth conditions for 24 h. After that, medium is replaced with fresh medium and cells are incubated for an additional 18 h. Eight serial 1:3 compound dilutions are made in DMSO. The compounds are added to each well of 6 well cell plates and are incubated at 37 °C under CO2 atmosphere 1 h. DDR1's autophosphorylation is stimulated by 1h treatment with 10 µg/mL Collagen I. Then, cells are washed in PBS, lyse adding 100 µl of complete RIPA protein lysis buffer (RIPA Buffer, 1 mM DTT, 5 mM Bezamidine, 10 µg/mL Aprotinin, 10 µg/mL Leupeptin, 710 ng/mL Pepstatin A, 100 µg/mL Trypsin Inhibitor, 40 µg/mL Bestatin, completed with PhosSTOP EASYpack and complete Mini, EDTA-free) and incubated 20 minutes at 4 °C and then centrifugated. Lysates are kept at -80 °C. The protein content of the lysates is determined by DC protein assay (Biorad, Ref. 5000116). The proteins are resolved by SDS-PAGE and transferred to nitrocellulose membrane (GE Healthcare #10600003). The membranes are incubated overnight at 4 °C with antibodies specific for DDR1 (D1G6) (Cell signaling #5583), P-DDR1 (Y513) (E1N8F) (Cell Signaling # 14531) they are washed and then incubated with Alexa Fluor 680 goat anti-rabbit IgG secondary antibodies (Invitrogen, A21076). The bands are visualized and quantified using an Odyssey infrared imaging system (Li-Cor Biosciences). The percentage of DDR1 phosphorylation is finally plotted against concentration for each compound and EC50s for intracellular DDR1 inhibition are calculated using ActivityBase from IDBS.

T1 sequence (Q08345 610-905 limits assumed): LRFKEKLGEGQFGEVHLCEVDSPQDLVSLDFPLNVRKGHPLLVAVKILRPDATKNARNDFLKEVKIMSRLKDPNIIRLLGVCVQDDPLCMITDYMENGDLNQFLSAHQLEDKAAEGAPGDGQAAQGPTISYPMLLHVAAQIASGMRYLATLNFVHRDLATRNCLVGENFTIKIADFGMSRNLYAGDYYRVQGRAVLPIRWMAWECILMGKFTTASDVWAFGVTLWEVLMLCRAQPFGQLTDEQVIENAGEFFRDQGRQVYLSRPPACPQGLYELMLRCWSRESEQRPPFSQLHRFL

Compound | pIC50 (DDR1 [1]) | pIC50 (DDR2) | pEC50 (DDR1 [2])
COc1cccc(-c2c(-c3ccnc(Nc4cccc(N5CCN(CCO)CC5)c4)n3)sc3nccc(=O)n23)c1 [Compound 50, 2-(2-{3-[4-(2-Hydroxy-ethyl)-piperazin-1-yl]-phenylamino}-pyrimidin-4-yl)-3-(3-methoxy-phenyl)-thiazolo[3,2-a]pyrimidin-5-one] | 7.68 | 7.10 | 7.48
O=c1ccnc2sc(-c3ccnc(Nc4cccc(N5CCN(CCO)CC5)c4)n3)c(-c3ccc(F)c(C(F)(F)F)c3)n12 [Compound 63, 3-(4-Fluoro-3-trifluoromethyl-phenyl)-2-(2-{3-[4-(2-hydroxy-ethyl)-piperazin-1-yl]-phenylamino}-pyrimidin-4-yl)-thiazolo[3,2-a]pyrimidin-5-one] | 6.92 | 6.49 | 6.85
NS(=O)(=O)c1cccc(Nc2nccc(-c3sc4nccc(=O)n4c3-c3ccc(Cl)c(Cl)c3)n2)c1 [Compound 61, 3-{4-[3-(3,4-Dichloro-phenyl)-5-oxo-5H-thiazolo[3,2-a]pyrimidin-2-yl]-pyrimidin-2-ylamino}-benzenesulfonamide] | 7.89 | 7.39 | 7.20
CN1CCN(c2ccc(Nc3nccc(-c4sc5nccc(=O)n5c4-c4ccc(Cl)cc4)n3)cc2)CC1 [Compound 45, 3-(4-Chloro-phenyl)-2-{2-[4-(4-methyl-piperazin-1-yl)-phenylamino]-pyrimidin-4-yl}-thiazolo[3,2-a]pyrimidin-5-one] | 8.37 | 7.90 | 8.12
CN1CCN(c2ccc(Nc3nccc(-c4sc5nccc(=O)n5c4-c4ccccc4Cl)n3)cc2)CC1 [Compound 39, 3-(2-Chloro-phenyl)-2-{2-[4-(4-methyl-piperazin-1-yl)-phenylamino]-pyrimidin-4-yl}-thiazolo[3,2-a]pyrimidin-5-one] | 8.15 | 7.67 | 7.45
CCOC(=O)c1cnc2sc(-c3ccnc(Nc4cccc(N5CCN(CCO)CC5)c4)n3)c(-c3ccccc3)n2c1=O [Compound 71, 2-(2-{3-[4-(2-Hydroxy-ethyl)-piperazin-1-yl]-phenylamino}-pyrimidin-4-yl)-5-oxo-3-phenyl-5H-thiazolo[3,2-a]pyrimidine-6-carboxylic acid ethyl ester] | 6.83 | 6.37 | 7.46
COc1cccc(-c2c(-c3ccnc(Nc4cccc(S(N)(=O)=O)c4)n3)sc3nccc(=O)n23)c1 [Compound 49, 3-{4-[3-(3-Methoxy-phenyl)-5-oxo-5H-thiazolo[3,2-a]pyrimidin-2-yl]-pyrimidin-2-ylamino}-benzenesulfonamide] | 7.68 | 6.99 | 7.00
NS(=O)(=O)c1cccc(Nc2nccc(-c3sc4nccc(=O)n4c3-c3cccc(Cl)c3Cl)n2)c1 [Compound 59, 3-{4-[3-(2,3-Dichloro-phenyl)-5-oxo-5H-thiazolo[3,2-a]pyrimidin-2-yl]-pyrimidin-2-ylamino}-benzenesulfonamide] | 7.99 | 7.33 | 7.00
Cc1nc2sc(-c3ccnc(Nc4cccc(N5CCN(CCO)CC5)c4)n3)c(-c3ccccc3)n2c(=O)c1C [Compound 75, 2-(2-{3-[4-(2-Hydroxy-ethyl)-piperazin-1-yl]-phenylamino}-pyrimidin-4-yl)-6,7-dimethyl-3-phenyl-thiazolo[3,2-a]pyrimidin-5-one] | 7.82 | 7.25 | 6.85
O=c1ccnc2sc(-c3ccnc(Nc4cccc(N5CCN(CCO)CC5)c4)n3)c(-c3cccc(Cl)c3Cl)n12 [Compound 60, 3-(2,3-Dichloro-phenyl)-2-(2-{3-[4-(2-hydroxy-ethyl)-piperazin-1-yl]-phenylamino}-pyrimidin-4-yl)-thiazolo[3,2-a]pyrimidin-5-one] | 8.27 | 7.74 | 7.50
O=c1ccnc2sc(-c3ccnc(Nc4cccc(N5CCN(CCO)CC5)c4)n3)c(C3CC3)n12 [Compound 65, 3-Cyclopropyl-2-(2-{3-[4-(2-hydroxy-ethyl)-piperazin-1-yl]-phenylamino}-pyrimidin-4-yl)-thiazolo[3,2-a]pyrimidin-5-one] | 6.93 | 6.33 | 6.79
COc1cccc(-c2c(-c3ccnc(Nc4ccc(N5CCN(C)CC5)cc4)n3)sc3nccc(=O)n23)c1 [Compound 51, 3-(3-Methoxy-phenyl)-2-{2-[4-(4-methyl-piperazin-1-yl)-phenylamino]-pyrimidin-4-yl}-thiazolo[3,2-a]pyrimidin-5-one] | 8.08 | 7.56 | 7.72
CC(C)c1c(-c2ccnc(Nc3cccc(N4CCN(CCO)CC4)c3)n2)sc2nccc(=O)n12 [Compound 64, 2-(2-{3-[4-(2-Hydroxy-ethyl)-piperazin-1-yl]-phenylamino}-pyrimidin-4-yl)-3-isopropyl-thiazolo[3,2-a]pyrimidin-5-one] | 7.82 | 7.04 | 7.23
NS(=O)(=O)c1cccc(Nc2nccc(-c3sc4nccc(=O)n4c3-c3cccc(Cl)c3)n2)c1 [Compound 40, 3-{4-[3-(3-Chloro-phenyl)-5-oxo-5H-thiazolo[3,2-a]pyrimidin-2-yl]-pyrimidin-2-ylamino}-benzenesulfonamide] | 7.79 | 7.21 | 6.95
CN1CCN(c2ccc(Nc3nccc(-c4sc5nccc(=O)n5c4-c4cccc(Cl)c4)n3)cc2)CC1 [Compound 42, 3-(3-Chloro-phenyl)-2-{2-[4-(4-methyl-piperazin-1-yl)-phenylamino]-pyrimidin-4-yl}-thiazolo[3,2-a]pyrimidin-5-one] | 8.24 | 7.75 | 7.51
